Bridge positions count the residues as written; N and C are the ends. Square brackets hold non-standard residues; d marks the D form. Peptide text beside a SMILES is read from it. * marks the point of attachment. ξ: configuration not given here. ξβ3hGly(cHex) = NC(CC(=O)*)C1CCCCC1; Thr(3ξ) = CC(O)[C@H](N)C(=O)O; Dab = NCC[C@H](N)C(=O)O
Tests used:
Acinetobacter baumannii = experiment: MIC, sole activity (no second agent); assay type: cell-based
Method in brief: (§1)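 Up to four strains per species were tested in cation-adjusted Mueller-Hinton broth, with inoculum made by direct colony suspension from 18-24 hour Mueller-Hinton agar plates, adjusted to 0.5 McFarland. Duplicates differing by under 2-fold gave the lower value; greater spread voided the run. Values are relative to Polymyxin B.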

Escherichia coli = experiment: MIC, sole activity (no second agent); assay type: cell-based
Method in brief: as §1

Klebsiella pneumoniae = experiment: MIC, sole activity (no second agent); assay type: cell-based
Method in brief: as §1

Pseudomonas aeruginosa = experiment: MIC, sole activity (no second agent); assay type: cell-based
Method in brief: as §1

[1] = test system: Escherichia coli isolate ATCC25922; conditions: 10 mg/kg/day (5 mg/kg BID subcutaneous), neutropenic CD-1 mice, 24 h post-infection
Protocol: At 1 h, the CFU count was determined from 5 mice and the remaining mice (five per group) were treated with a subcutaneous injection of the drug at +1 and 6 hr post-infection.
Twenty-four hours after infection, the mice were euthanized humanely. The muscle of the right thigh of each animal was harvested, homogenized, serially diluted and plated on Brain Heart Infusion agar+0.5% charcoal (w/v) for CFU determination. Decrease of the total CFU of right thigh as compared to control counts at 24 h post-infection was determined for each dose group.

[2] = Second Agent none (Table 7B, by row order)

CC(C)C[C@@H]1NC(=O)[C@@H](Cc2ccccc2)NC(=O)[C@H](CCN)NC(=O)[C@@H](NC(=O)[C@H](CCN)NC(=O)[C@@H](NC(=O)CC(N)C2CCCCC2)C(C)O)CCNC(=O)[C@H](C(C)O)NC(=O)[C@H](CCN)NC(=O)[C@H](CCN)NC1=O (stereo partly drawn) [Example 10, [3(R,S)-3-Amino-3-cyclohexane-propanoyl]Polymyxin B nonapeptide] ({ξβ3hGly(cHex)}-[Thr(3ξ)][Dab][Dab][Dab][dF]L[Dab][Dab][Thr(3ξ)]; lactam 3-C)
MIC A. baumannii NCTC 13424 (Acinetobacter baumannii; [2]): 2 micrograms/mL | MIC A. baumannii NCTC 13424 (Acinetobacter baumannii; Second Agent none (Table 7E)): 0.5 micrograms/mL | MIC A. baumannii NCTC 13424 (Acinetobacter baumannii; Table 7F, A. baumannii NCTC 13424, second agent none): 0.5 micrograms/mL | MIC A. baumannii NCTC 13424 (Acinetobacter baumannii; Table 7H, A. baumannii NCTC 13424, second agent none): 0.5 micrograms/mL | MIC A. baumannii ATCC13424 (Acinetobacter baumannii; in the absence of Rifampicin, strain ATCC13424): 1 micrograms/mL | MIC A. baumannii ATCCBAA-747 (Acinetobacter baumannii; in the absence of Rifampicin, strain ATCCBAA-747): 0.5 micrograms/mL | MIC A. baumannii CCUG57249 (Acinetobacter baumannii; in the absence of Rifampicin, strain CCUG 57249): 0.5 micrograms/mL | MIC A. baumannii NCTC 13423 (Acinetobacter baumannii; in the absence of Rifampicin, strain NCTC13423): 0.125 micrograms/mL | MIC E. coli NCTC9001 (Escherichia coli; E. coli NCTC9001, second agent none): 4 micrograms/mL | MIC E. coli NCTC9001 (Escherichia coli; Second Agent none (Table 7A)): 4 microgram/mL | MIC E. coli ATCC25922 (Escherichia coli; Second Agent none (Table 7B)): 4 micrograms/mL | MIC E. coli CCUG 59342 (Escherichia coli; Second Agent none (Table 7B)): 0.5 micrograms/mL | MIC E. coli NCTC9001 (Escherichia coli; Second Agent none (Table 7B)): 8 micrograms/mL | MIC E. coli NCTC9001 (Escherichia coli; Second Agent none (Table 7C)): 4 micrograms/mL | MIC E. coli ATCC25922 (Escherichia coli; Second Agent none (Table 7E)): 8 micrograms/mL | MIC E. coli NCTC 13441 (Escherichia coli; Second Agent none (Table 7E)): 8 micrograms/mL | MIC E. coli ATCC25922 (Escherichia coli; Table 7F, E. coli ATCC25922, second agent none): 8 micrograms/mL | MIC E. coli NCTC 13441 (Escherichia coli; Table 7F, E. coli NCTC 13441, second agent none): 8 micrograms/mL | MIC E. coli ATCC25922 (Escherichia coli; Table 7G, E. coli ATCC25922, second agent none): 8 micrograms/mL | MIC E. coli ATCC25922 (Escherichia coli; Table 7H, E. coli ATCC25922, second agent none): 8 micrograms/mL | MIC E. coli NCTC 13441 (Escherichia coli; Table 7H, E. coli NCTC 13441, second agent none): 8 micrograms/mL | MIC E. coli ATCC25922 (Escherichia coli; Table 7I, E. coli ATCC25922, second agent none): 8 micrograms/mL | MIC E. coli ATCC25922 (Escherichia coli; in the absence of Rifampicin, strain ATCC25922): 2 micrograms/mL | MIC E. coli NCTC9001 (Escherichia coli; in the absence of Rifampicin, strain NCTC9001): 4 micrograms/mL | MIC K. pneumoniae ATCC BAA-1706 (Klebsiella pneumoniae; K. pneumoniae ATCC BAA-1706, second agent none): 0.5 micrograms/mL | MIC K. pneumoniae CCUG 59348 (Klebsiella pneumoniae; K. pneumoniae CCUG 59348, second agent none): >32 micrograms/mL | MIC K. pneumoniae NCTC 13442 (Klebsiella pneumoniae; K. pneumoniae NCTC 13442, second agent none): >32 micrograms/mL | MIC K. pneumoniae CCUG 59348 (Klebsiella pneumoniae; Second Agent none (Table 7A)): >32 microgram/mL | MIC K. pneumoniae CCUG 59626 (Klebsiella pneumoniae; Second Agent none (Table 7A)): 0.25 microgram/mL | MIC K. pneumoniae NCTC 13442 (Klebsiella pneumoniae; Second Agent none (Table 7A)): >32 microgram/mL | MIC K. pneumoniae CCUG 59348 (Klebsiella pneumoniae; Second Agent none (Table 7B)): >32 micrograms/mL | MIC K. pneumoniae NCTC 13442 (Klebsiella pneumoniae; Second Agent none (Table 7B)): >32 micrograms/mL | MIC K. pneumoniae ATCC 4352 (Klebsiella pneumoniae; [2]): 0.5 micrograms/mL | MIC K. pneumoniae ATCC BAA-1706 (Klebsiella pneumoniae; [2]): 0.5 micrograms/mL | MIC K. pneumoniae CCUG 59348 (Klebsiella pneumoniae; Second Agent none (Table 7C)): >32 micrograms/mL | MIC K. pneumoniae NCTC 13442 (Klebsiella pneumoniae; Second Agent none (Table 7C)): >32 micrograms/mL | MIC K. pneumoniae ATCC 4352 (Klebsiella pneumoniae; Second Agent none (Table 7E)): 1 micrograms/mL | MIC K. pneumoniae CCUG 59349 (Klebsiella pneumoniae; Second Agent none (Table 7E)): 8 micrograms/mL | MIC K. pneumoniae ATCC 4352 (Klebsiella pneumoniae; Table 7F, K. pneumoniae ATCC4352, second agent none): 1 micrograms/mL | MIC K. pneumoniae CCUG 59349 (Klebsiella pneumoniae; Table 7F, K. pneumoniae CCUG 59349, second agent none): 8 micrograms/mL | MIC K. pneumoniae ATCC 4352 (Klebsiella pneumoniae; Table 7G, K. pneumoniae ATCC4352, second agent none): 1 micrograms/mL | MIC K. pneumoniae ATCC 4352 (Klebsiella pneumoniae; Table 7H, K. pneumoniae ATCC4352, second agent none): 1 micrograms/mL | MIC K. pneumoniae CCUG 59349 (Klebsiella pneumoniae; Table 7H, K. pneumoniae CCUG 59349, second agent none): 8 micrograms/mL | MIC K. pneumoniae ATCC 4352 (Klebsiella pneumoniae; Table 7I, K. pneumoniae ATCC4352, second agent none): 1 micrograms/mL | MIC K. pneumoniae ATCC 4352 (Klebsiella pneumoniae; in the absence of Rifampicin, strain ATCC 4352): 1 micrograms/mL | MIC K. pneumoniae ATCC-BAA2146 (Klebsiella pneumoniae; in the absence of Rifampicin, strain ATCC-BAA2146): 32 micrograms/mL | MIC K. pneumoniae CCUG-59348 (Klebsiella pneumoniae; in the absence of Rifampicin, strain CCUG-59348): >32 micrograms/mL | MIC K. pneumoniae NCTC-13438 (Klebsiella pneumoniae; in the absence of Rifampicin, strain NCTC-13438): >32 micrograms/mL | MIC P. aeruginosa CCUG 59626 (Pseudomonas aeruginosa; P. aeruginosa CCUG 59626, second agent none): 0.25 micrograms/mL | MIC P. aeruginosa ATCC 27853 (Pseudomonas aeruginosa; [2]): 0.25 micrograms/mL | MIC P. aeruginosa CCUG 59626 (Pseudomonas aeruginosa; [2]): 0.25 micrograms/mL | MIC P. aeruginosa CCUG 59626 (Pseudomonas aeruginosa; Second Agent none (Table 7C)): 0.25 micrograms/mL | MIC P. aeruginosa ATCC 10145 (Pseudomonas aeruginosa; Second Agent none (Table 7E)): 0.25 micrograms/mL | MIC P. aeruginosa ATCC 10145 (Pseudomonas aeruginosa; Table 7F, P. aeruginosa ATCC 10145, second agent none): 0.25 micrograms/mL | MIC P. aeruginosa ATCC 10145 (Pseudomonas aeruginosa; Table 7H, P. aeruginosa ATCC 10145, second agent none): 0.25 micrograms/mL | MIC P. aeruginosa ATCC 27853 (Pseudomonas aeruginosa; in the absence of Rifampicin, strain ATCC27853): 0.5 micrograms/mL | MIC P. aeruginosa ATCC-47 (Pseudomonas aeruginosa; in the absence of Rifampicin, strain ATCC-47): 1 micrograms/mL | MIC P. aeruginosa ATCCCRM-9027 (Pseudomonas aeruginosa; in the absence of Rifampicin, strain ATCCCRM-9027): 0.25 micrograms/mL | MIC P. aeruginosa CCUG 59626 (Pseudomonas aeruginosa; in the absence of Rifampicin, strain CCUG 59626): 0.25 micrograms/mL | reduction in bacterial counts [1]: over 3 log10

— patent publication US10407467B2, “Polymyxin derivatives and their use in combination therapy together with different antibiotics” (priority 2013, dated 2019)
